Measured values from article doi:10.1101/2024.05.19.594723v1 (biorxiv, 2024).
Structures can show the parent of a compound that is named as a salt. Where two headings read alike, the source gives them in different places.

Tests used:
in vitro [1] = conditions: monkey, vero cells
in vitro [2] = conditions: hamster, bhk-21 cells
CHIKV nsP1 [3] = target: T1, CHIKV nsP1 (Chikungunya virus strain S27-African prototype, UniProt Q8JUX6); type: binding
T1 sequence (Q8JUX6 1-535): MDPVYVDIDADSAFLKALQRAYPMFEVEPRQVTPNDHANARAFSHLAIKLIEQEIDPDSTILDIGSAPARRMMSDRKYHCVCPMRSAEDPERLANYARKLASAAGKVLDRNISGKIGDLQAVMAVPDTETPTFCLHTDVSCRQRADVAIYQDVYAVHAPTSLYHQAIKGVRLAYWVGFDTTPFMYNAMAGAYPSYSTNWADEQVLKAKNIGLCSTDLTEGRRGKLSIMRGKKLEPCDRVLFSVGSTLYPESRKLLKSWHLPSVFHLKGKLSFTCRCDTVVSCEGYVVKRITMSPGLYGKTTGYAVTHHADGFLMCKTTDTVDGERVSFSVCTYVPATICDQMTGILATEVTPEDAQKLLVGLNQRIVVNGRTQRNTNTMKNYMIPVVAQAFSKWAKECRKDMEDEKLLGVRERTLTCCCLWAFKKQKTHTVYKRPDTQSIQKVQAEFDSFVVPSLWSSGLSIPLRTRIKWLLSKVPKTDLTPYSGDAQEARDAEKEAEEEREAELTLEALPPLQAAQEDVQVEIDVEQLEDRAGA

Chikungunya virus CHIKV = test: microbe, parasite or virus in culture; conditions: read-out: Plaque reduction assay IC50 (nM)
Sindbis virus SINV = test: microbe, parasite or virus in culture; conditions: BHK-21, read-out: SINV replicon assay IC50 (μM)
CHIKV nsP1 [4] = target: T1, CHIKV nsP1; test: biochemical

SMILES | CC50 at 24 h (in vitro [1]) [µM] | CC50 at 24 h (in vitro [2]) [µM] | Kd (CHIKV nsP1 [3]) [µM] | IC50 (Chikungunya virus CHIKV) [nM] | IC50 (Sindbis virus SINV) [µM] | Kd (CHIKV nsP1 [4]) [µM]
Cc1ccc(C(=O)Nc2ccc(CN3CCN(C)CC3)c(C(F)(F)F)c2)cc1C#Cc1cnc2cccnn12 [Ponatinib] | 7.95 | 2.4 | ~3.83 | < 3.9 | > 1.25 | 
COc1cc2c3cc1Oc1c(OC)c(OC)cc4c1[C@@H](Cc1cccc(c1)Oc1ccc(c(O)c1)C[C@@H]3N(C)CC2)N(C)CC4 [Berbamine Hydrochloride] | > 25 | 46 |  | < 100 | 1.94 ± 0.97 | 5.45 ± 0.77
CC1(C)CCC(CN2CCN(c3ccc(C(=O)NS(=O)(=O)c4ccc(NCC5CCOCC5)c([N+](=O)[O-])c4)c(Oc4cnc5[nH]ccc5c4)c3)CC2)=C(c2ccc(Cl)cc2)C1 [ABT199/Venetoclax] | 5 | > 2.5 | ~161 | 3.46 ± 1.31 | 0.23 ± 0.04 | 
